The source of these data is ChEMBL document CHEMBL1148100, “Structure-activity relationships of norditerpenoid alkaloids occurring in toxic larkspur (Delphinium) species” (J Nat Prod, 1995).

The data set in a line: Toxicity in iv dosed Swiss-Webster mouse. To be noted: in vivo. The format is organism-based.
In turn, `CO[C@H]1[C@@H]2C[C@@H]3[C@H]1[C@](O)(C[C@@H]2OC)[C@]1(O)C2NC[C@]4(COC(=O)c5ccccc5N5C(=O)CC(C)C5=O)CC[C@H](OC)[C@@]23[C@@H]4[C@@H]1OC` (stereo partly drawn) had an LD50 of 100 mg/kg.

In the case of `CCN1C[C@]2(COC(=O)c3ccccc3N3C(=O)C[C@H](C)C3=O)CC[C@H](OC)[C@@]34C1[C@@]1(OCO[C@@]15C[C@H](OC)[C@H]1C[C@@H]3[C@@H]5[C@H]1OC)[C@@H](OC)[C@H]24` [ELATINE], the LD50 is 9.2 mg/kg.

For the compound `CCN1C[C@]2(CO)CC[C@H](OC)[C@@]34[C@@H]5C[C@H]6[C@H](OC)[C@@H]5[C@](O)(C[C@@H]6OC)[C@](O)([C@@H](OC)[C@H]23)[C@@H]14` [LYCOCTONINE], the LD50 came out at 444 mg/kg.

Compound `CCN1C[C@]2(COC(=O)c3ccccc3N3C(=O)CC(C)C3=O)CC[C@H](OC)[C@]34C1[C@](O)([C@@H](OC)[C@H]23)[C@@]1(O)C[C@H](OC)[C@H]2C[C@@H]4[C@@H]1C2=O` (stereo partly drawn) [BARBININE] displayed an LD50 of 57 mg/kg.

`CCN1C[C@]2(C)CC[C@H](OC)[C@@]34C1[C@]1(OCO[C@@]15C[C@H](OC)[C@H]1C[C@]3(O)[C@@H]5[C@H]1O)[C@@H](OC(C)=O)[C@H]24` [DICTYOCARPINE] showed an LD50 of 283 mg/kg.

`CCN1C[C@]2(COC(=O)c3ccccc3N3C(=O)C[C@H](C)C3=O)CC[C@H](OC)[C@]34C5C[C@@H]6[C@@H](OC)C[C@@](O)(C5[C@H]6OC(C)=O)[C@](O)(C13)[C@@H](OC)C24` (stereo partly drawn) [NUDICAULINE] showed an LD50 of 2.7 mg/kg.

Regarding `CCN1C[C@]2(COC(=O)c3ccccc3N3C(=O)C[C@H](C)C3=O)CC[C@H](OC)[C@@]34[C@@H]5C[C@H]6[C@H](OC)[C@@H]5[C@](O)(C[C@@H]6OC)[C@](O)([C@@H](OC)[C@H]23)[C@@H]14` [METHYLLYCACONITINE], the LD50 stood at 7.5 mg/kg.

The compound `CO[C@H]1[C@@H]2C[C@@H]3[C@H]1[C@](O)(C[C@@H]2OC)[C@]1(O)C2NC(=O)[C@]4(COC(=O)c5ccccc5N5C(=O)CC(C)C5=O)CC[C@H](OC)[C@@]23[C@@H]4[C@@H]1OC` (stereo partly drawn) [ZALILINE] displayed an LD50 above 230 mg/kg.

Take `CCN1C[C@]2(C)CC[C@H](OC)[C@@]34C1[C@]1(OCO[C@@]15C[C@H](OC)[C@H]1C[C@]3(O)[C@@H]5[C@H]1OC)[C@@H](OC(C)=O)[C@H]24` [DELTALINE]: the LD50 turned out to be 200 mg/kg.

`CCN1C[C@]2(COC(=O)c3ccccc3N)CC[C@H](OC)[C@]34C1[C@](O)([C@@H](OC)[C@H]23)[C@@]1(O)C[C@H](OC)[C@H]2C[C@@H]4[C@@H]1[C@H]2OC` [ANTHRANOYLLYCOCTONINE] registered an LD50 of 20.8 mg/kg.

The compound `CO[C@H]1[C@@H]2C[C@]3(O)[C@H]1[C@@]1(C[C@@H]2OC)OCO[C@]12C1NC[C@]4(C)CC[C@H](OC)[C@@]13[C@@H]4[C@@H]2OC(C)=O` gave an LD50 of 210 mg/kg.

Compound `CO[C@H]1[C@@H]2C[C@@H]3[C@H]1[C@](O)(C[C@@H]2OC)[C@]1(O)C2N=C[C@]4(COC(=O)c5ccccc5N5C(=O)CC(C)C5=O)CC[C@H](OC)[C@@]23[C@@H]4[C@@H]1OC` (stereo partly drawn) [ANHWEIDELPHININE] returned an LD50 above 177 mg/kg.

As for `CCN1C[C@]2(COC(=O)c3ccccc3N3C(=O)CC(C)C3=O)CC[C@H](OC)[C@]34C1[C@](O)([C@@H](OC)[C@H]23)[C@@]1(O)C[C@H](OC)[C@H]2C[C@@H]4[C@@H]1[C@H]2O` (stereo partly drawn), the LD50 amounted to 4 mg/kg.
